Assay results taken from the PolyMetriX glass transition set.

| SMILES | glass transition temperature [°C] |
| --- | --- |
| */C(C#N)=C(\C#N)N1C(=O)c2ccc(C(=O)c3ccc(-c4ccc5c(c4)C(=O)N(*)C5=O)cc3)cc2C1=O (repeat unit) | 249.00 |
| *CCOCCOCCN1C(=O)c2ccc(C(=O)Oc3ccc(-c4ccc(OC(=O)c5ccc6c(c5)C(=O)N(*)C6=O)cc4)cc3)cc2C1=O (repeat unit) | 109.00 |
| *OP(=O)(Oc1c(Cl)c(Cl)c(*)c(Cl)c1Cl)Oc1c(Cl)c(Cl)c(Cl)c(Cl)c1Cl (repeat unit) | 133.00 |
| *OP(=O)(Oc1ccc(Cl)cc1)Oc1c(Cl)c(Cl)c(*)c(Cl)c1Cl (repeat unit) | 119.00 |
| *OP(=O)(Oc1ccc(OC)cc1)Oc1c(Br)cc(C(c2cc(Br)c(*)c(Br)c2)(C(F)(F)F)C(F)(F)F)cc1Br (repeat unit) | 151.00 |
| *OP(=O)(Oc1ccccc1)Oc1c(Cl)c(Cl)c(*)c(Cl)c1Cl (repeat unit) | 79.00 |
| *O[Si](*)(C)CCCCCCCCCCCn1c2ccccc2c2ccccc21 (repeat unit) | -45.00 |
| *O[Si](*)(C)CCCCCCCCOc1ccc(C(=O)Oc2ccc(C#N)cc2C)cc1 (repeat unit) | 5.50 |
| *O[Si](*)(C)CCCCCCOC(=O)c1cc(OC(=O)c2ccc(OCCOCCOCCOCCOCCOCCOC)cc2)ccc1OC(=O)c1ccc(OCCOCCOCCOCCOCCOCCOC)cc1 (repeat unit) | -50.00 |
| *O[Si](*)(C)CCCCCCOc1ccc(C(=O)Oc2ccc(C#N)cc2C)cc1 (repeat unit) | 45.00 |
| *O[Si](*)(C)CCCCCCOc1ccc(C(=O)Oc2ccc(OC)cc2)cc1 (repeat unit) | -2.00 |
| *O[Si](*)(C)CCCCCCn1c2ccccc2c2ccccc21 (repeat unit) | -5.00 |
| *O[Si](*)(C)CCCCOc1ccc(-c2ccc(C#N)cc2)cc1 (repeat unit) | 22.50 |
| *O[Si](*)(C)CCCOC(=O)c1cc(OC(=O)c2ccc(OCCOCCOCCOCCOC)cc2)ccc1OC(=O)c1ccc(OCCOCCOCCOCCOC)cc1 (repeat unit) | -37.00 |
| *O[Si](*)(C)CCCOc1ccc(/N=N/c2ccc(S(=O)(=O)O)cc2)cc1 (repeat unit) | 9.20 |
| *O[Si](*)(C)CCCOc1ccc(C(=O)OC2CCC3(C)C(=CCC4C3CCC3(C)C(C(C)CCCC(C)C)CCC43)C2)cc1 (repeat unit) | 61.10 |
| *O[Si](*)(C)CCCOc1ccc(C(=O)OC2CCC3(C)C(=CCC4C3CCC3(C)C(C(C)CCCC(C)C)CCC43)C2)cc1S(=O)(=O)[O][K] (repeat unit) | 112.60 |
| *O[Si](*)(C)CCCOc1ccc(C(=O)Oc2ccc(-c3ccc(OC(=O)CCCCC(=O)OC4CC(C)CCC4C(C)C)cc3)cc2)cc1 (repeat unit) | 56.80 |
| *O[Si](*)(C)CCCOc1ccc(C(=O)Oc2ccc(-c3ccc(OC(=O)c4ccc(OCC)cc4)cc3)cc2)cc1 (repeat unit) | 74.60 |
| *O[Si](*)(C)CCCOc1ccc(N(c2ccc(C)cc2)c2ccc(-c3ccc(N(c4ccccc4)c4ccc(C)cc4)cc3)cc2)cc1 (repeat unit) | 102.00 |
| *O[Si](*)(C)CCCn1c2ccccc2c2ccccc21 (repeat unit) | 55.5 |
| *O[Si](*)(C)CCc1cc(C(=O)Oc2ccc(OCCCC)cc2)ccc1-c1ccc(C(=O)Oc2ccc(OCCCC)cc2)cc1 (repeat unit) | 96.00 |
| *O[Si](*)(C)CCc1cc(C(=O)Oc2ccc(OCCCC)cc2)ccc1C(=O)Oc1ccc(OCCCC)cc1 (repeat unit) | 92.00 |

| SMILES | glass transition temperature [°C] |
| --- | --- |
| *O[Si](*)(C)OCCCCCCCCCCCOc1ccc(C2COC(c3ccc(OC)cc3)OC2)cc1 (repeat unit) | 44.00 |
| *O[Si](*)(C)c1ccc(C)cc1 (repeat unit) | -17.00 |
| *O[Si](*)(CCC)CCC (repeat unit) | -77.50 |
| *O[Si](*)(CCC)c1ccccc1 (repeat unit) | 40.60 |
| *O[Si](*)(CCCOCCOCCOCCOCCOC)CCCOCCOCCOCCOCCOC (repeat unit) | -69.80 |
| *O[Si](*)(CCCOCCOCCOCCOCCOCCOCCOC)CCCOCCOCCOCCOCCOCCOCCOC (repeat unit) | -68.90 |
| *O[Si](C)(C)O[Si](C)(C)O[Si](C)(C)O[Si](C)(C)O[Si](C)(C)Oc1c(*)c2ccccc2c2ccccc12 (repeat unit) | -38.00 |
| *O[Si](C)(C)O[Si](C)(C)Oc1ccc(-c2ccc(*)cc2)cc1 (repeat unit) | -4.00 |
| *O[Si](Oc1ccc(-c2ccc(*)cc2)cc1)(c1ccccc1)c1ccccc1 (repeat unit) | 132.2 |
| *Oc1c(-c2ccccc2)cc(*)cc1-c1ccc(C(C)(C)C)cc1 (repeat unit) | 240.00 |
| *Oc1c(-c2ccccc2)cc(*)cc1-c1ccc(C)cc1 (repeat unit) | 218.00 |
| *Oc1c(-c2ccccc2)cc(*)cc1-c1cccc(-c2ccccc2)c1-c1ccccc1 (repeat unit) | 212.00 |
| *Oc1c(-c2ccccc2)cc(*)cc1-c1cccc(C)c1 (repeat unit) | 219.00 |
| *Oc1c(-c2ccccc2)cc(*)cc1-c1cccc2ccccc12 (repeat unit) | 234.00 |
| *Oc1c(Br)cc(*)cc1Br (repeat unit) | 196.00 |
| *Oc1c(Br)cc(C2(c3cc(Br)c(OC(*)=O)c(Br)c3)CC3CCC2C3)cc1Br (repeat unit) | 283.00 |
| *Oc1c(C(C)C)cc(*)cc1C(C)C (repeat unit) | 152.40 |
| *Oc1c(C)cc(*)cc1C (repeat unit) | 212.00 |
| *Oc1c(C)cc(*)cc1C(C)CCC (repeat unit) | 100.00 |
| *Oc1c(C)cc(*)cc1C(C)CCCCCC (repeat unit) | 54.00 |
| *Oc1c(C)cc(*)cc1C(C)CCCCCCCCCCCC (repeat unit) | -10.00 |
| *Oc1c(Cl)cc(*)cc1Br (repeat unit) | 188.50 |
| *Oc1c(Cl)cc(C(c2cc(Cl)c(OC(*)=O)c(Cl)c2)C(Cl)(Cl)Cl)cc1Cl (repeat unit) | 273.00 |

| SMILES | glass transition temperature [°C] |
| --- | --- |
| *Oc1c(Cl)cc(C2(c3cc(Cl)c(OC(*)=O)c(Cl)c3)CC3CCC2C3)cc1Cl (repeat unit) | 290.00 |
| *Oc1cc(Br)cc(Br)c1* (repeat unit) | 170.00 |
| *Oc1cc(C)c(*)c(C)c1Br (repeat unit) | 280.1 |
| *Oc1cc(Cl)cc(Cl)c1* (repeat unit) | 165.00 |
| *Oc1ccc(-c2ccc(-c3cc(-c4ccccc4)c(-c4ccc(-c5ccc(OC(=O)c6ccc(C(*)=O)cc6-c6ccccc6)cc5)cc4)c(-c4ccccc4)c3-c3ccccc3)cc2)cc1 (repeat unit) | 260.00 |
| *Oc1ccc(-c2ccc(OC(*)(Oc3ccccc3)Oc3ccccc3)cc2)cc1 (repeat unit) | 112.00 |
| *Oc1ccc(-c2ccc(OC(=O)c3cc(OCCCc4ccccc4)c(C(*)=O)cc3OCCCc3ccccc3)cc2)cc1 (repeat unit) | 72.00 |
| *Oc1ccc(-c2ccc(OC(=O)c3ccc(-c4ccc(C(*)=O)cc4)cc3-c3ccccc3)cc2)cc1 (repeat unit) | 168.00 |
| *Oc1ccc(-c2ccc(OC(=O)c3ccc(C(*)=O)cc3)cc2)cc1-c1ccccc1 (repeat unit) | 132.00 |
| *Oc1ccc(C(=O)c2ccc(Oc3ccc(C(c4ccc(*)cc4)(C(F)(F)F)C(F)(F)F)cc3)cc2)c2ccccc12 (repeat unit) | 190.00 |
| *Oc1ccc(C(=O)c2ccccc2)c(-c2cc(Oc3ccc(-c4ccc(*)cc4)cc3)ccc2C(=O)c2ccccc2)c1 (repeat unit) | 174.00 |
| *Oc1ccc(C(c2ccc(Oc3ccc(C(=O)c4ccc(*)cc4)cc3)cc2)(C(F)(F)F)C(F)(F)F)cc1 (repeat unit) | 175.00 |
| *Oc1ccc(Oc2ccc(C(=O)c3ccc(Oc4ccc(Oc5ccc(C(=O)c6ccc(*)c(C(C)C)c6)cc5)cc4)cc3)cc2C(C)C)cc1 (repeat unit) | 145.00 |
| *Oc1ccc(S(=O)(=O)c2ccc(Oc3c(C)cc(C(c4cc(C)c(*)c(C)c4)(C(F)(F)F)C(F)(F)F)cc3C)cc2C(OC)(C(F)(F)F)C(F)(F)F)c(C(OC)(C(F)(F)F)C(F)(F)F)c1 (repeat unit) | 163.00 |
| *c1cc(N2C(=O)c3ccc(Oc4cc5ccccc5cc4Oc4ccc5c(c4)C(=O)N(*)C5=O)cc3C2=O)cc(C(F)(F)F)c1 (repeat unit) | 250.00 |
| *c1ccc(C(c2ccc(N3C(=O)c4ccc(Oc5cc6ccccc6cc5Oc5ccc6c(c5)C(=O)N(*)C6=O)cc4C3=O)cc2)(C(F)(F)F)C(F)(F)F)cc1 (repeat unit) | 256.00 |
| *c1ccc(Oc2ccc(C(=O)c3ccc(Oc4ccc(N5C(=O)c6ccc(S(=O)(=O)c7ccc8c(c7)C(=O)N(*)C8=O)cc6C5=O)cc4)cc3)cc2)cc1 (repeat unit) | 275.50 |
| *c1ccc(Oc2ccc(Oc3ccc(N4C(=O)c5ccc(Oc6cc7ccccc7cc6Oc6ccc7c(c6)C(=O)N(*)C7=O)cc5C4=O)cc3)cc2)cc1 (repeat unit) | 224.50 |
| *c1ccc(Oc2ccc(Oc3ccc(Oc4ccc(N5C(=O)c6ccc(Oc7ccc(-c8ccc(Oc9ccc%10c(c9)C(=O)N(*)C%10=O)cc8)cc7)cc6C5=O)cc4)cc3)cc2)cc1 (repeat unit) | 208.00 |
| *c1ccc(Oc2cccc(N3C(=O)c4ccc(Oc5cc6ccccc6cc5Oc5ccc6c(c5)C(=O)N(*)C6=O)cc4C3=O)c2)cc1 (repeat unit) | 226.00 |
| *c1ccc2c(c1)C(=O)N(c1ccc(Oc3ccc(C(=O)c4ccc(Oc5ccc(N6C(=O)c7ccc(C(*)(C(F)(F)F)C(F)(F)F)cc7C6=O)cc5)cc4)cc3)cc1)C2=O (repeat unit) | 266.00 |
